The text below walks through data of PMC12584752, “Covalent fragment screening to inhibit the E3 ligase activity of bacterial NEL enzymes SspH1 and SspH2” (RSC Chemical Biology, 2025).

For this test, the target named is SspH1 (161–700) (Salmonella typhimurium, UniProt D0ZVG2). The test can be described thus: Round 1 intact protein LC-MS covalent fragment labelling screen and dilution series. The class given is binding. Also on record: Recombinant IpaH9.8 (21–545) and SspH1 (161–700) were incubated at 0.5 μM; His-tag (N, cleaved yes); made in house; host or cells: E. coli BL21. The note with it: round 1 screen; 0.5 μM SspH1, 50 μM fragments, 24 hours at 4 °C. On the procedure:
A diverse library of 227 compounds with chloroacetamide warheads, featuring a diversity of molecular weight (162–321 Da) and clog P (−1.4 to 3.4) (Table S1), were screened against Salmonella and Shigella NEL E3 ligases using our intact protein liquid chromatography mass spectrometry (LC-MS) platform as previously described.[39,40] Briefly, recombinant SspH1 (161–700[30]) and IpaH9.8 (21–545[29]) (Fig. 1A and B) were incubated with 50 μM fragments for 24 hours at 4 °C before analysis by LC-MS (Fig. 1C). Raw counts were deconvoluted and the labelling percentage calculated by detection and comparison of protein and protein-fragment molecular weights.
Fig. 1 Intact protein LCMS screening of covalent fragment library against NEL proteins. (A) Cartoon depicting conserved NEL E3 ligase domains; (B) overlaid structures of SspH1 (blue, PDB 9H6W[30]) and IpaH9.8 (green, PDB 6LOL[29]) aligned on NEL domain; (C) workflow of covalent fragment screening using intact LC-MS; (D) fragment labelling percentages for SspH1 and IpaH9.8 with fragments 1–3 highlighted. Recombinant IpaH9.8 (21–545) and SspH1 (161–700) were incubated at 0.5 μM with 50 μM fragments for 24 hours at 4 °C, before fragment labelling was analysed by intact LC-MS; (E) chemical structures of fragments 1–3.
We next analysed the potency of compounds 4–10 against SspH1. The seven compounds were obtained as purified compounds (Table S2) and screened against SspH1 by intact LC-MS (Fig. 3A) with two-fold serial dilution (100–6.25 μM). To confirm which of the two cysteines in the SspH1 161–700 construct were labelled, we repeated the concentration response experiment with a catalytic cysteine mutant of SspH1 (C492K) (Fig. 3B). The complete abrogation of labelling confirmed that all […] compounds labelled the catalytic cysteine of SspH1.
1 μM IpaH9.8 or SspH1 were incubated with […] fragments for 24 hours at 4 °C, in 25 mM HEPES pH 7.5, 50 mM NaCl buffer. Intact protein LC-MS was performed as previously described.[40] The following deconvolution conditions were used for recombinant proteins studied in this work:
Dilution series experiments were performed as for 1st round screening. 1 μM OTUD4, OTUD5 or 0.5 μM HOIL, UbcH5A, SspH2, SspH1 C492K were incubated with 100–6.25 μM compounds for 24 hours at 4 °C, in 25 mM HEPES pH 7.5, 50 mM NaCl buffer. Intact protein LC-MS was performed as previously described.[40] The following deconvolution conditions were used for recombinant proteins studied in this work: […]

Sequence of SspH1 (161–700) (D0ZVG2 161-700): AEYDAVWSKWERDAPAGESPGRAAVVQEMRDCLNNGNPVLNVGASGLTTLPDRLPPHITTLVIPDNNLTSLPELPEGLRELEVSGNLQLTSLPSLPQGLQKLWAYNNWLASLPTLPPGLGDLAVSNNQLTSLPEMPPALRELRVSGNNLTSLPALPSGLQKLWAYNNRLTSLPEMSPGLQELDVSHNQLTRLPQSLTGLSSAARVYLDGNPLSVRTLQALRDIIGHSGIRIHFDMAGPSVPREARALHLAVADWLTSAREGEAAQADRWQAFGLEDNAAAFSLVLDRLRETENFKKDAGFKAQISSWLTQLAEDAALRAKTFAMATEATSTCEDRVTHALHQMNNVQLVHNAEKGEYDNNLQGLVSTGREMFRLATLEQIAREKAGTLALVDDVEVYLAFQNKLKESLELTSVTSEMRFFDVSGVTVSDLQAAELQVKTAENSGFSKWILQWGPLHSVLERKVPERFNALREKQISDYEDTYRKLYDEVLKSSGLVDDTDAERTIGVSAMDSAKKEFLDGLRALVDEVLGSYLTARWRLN

Turning to `O=C(CCl)N1CCCN(C(=O)c2ccc(Cl)cc2)CC1` [fragment 1], the protein labelling percentage entry was “greater than 30%”.

Turning to `Cl.O=C(CCl)N1CCC(n2nc3ccccc3n2)CC1` [fragment 2], the protein labelling percentage entry is listed as “greater than 30%”.

On to `Cc1cccn2cc(CCNC(=O)CCl)nc12.Cl` [fragment 3], for which the protein labelling percentage entry is “greater than 30%”.
